Source: patent US20100094009A1, “NOVEL CRYSTALLINE COMPOUND USEFUL AS GLK ACTIVATOR” (priority 2006, published 2010)

How the values were obtained:
Format in all cases: physicochemical
[1] = Conversion of the crystalline form in aqueous media
[2] = Competitive slurries of Form A and Form B in a range of solvents
From the text: Form B also has a much higher melting endotherm.

[3] = Solubility profile of solid forms

SMILES | conversion to other solid forms in aqueous media [1] | relative stability of crystalline forms in competitive slurries [2] | solubility profile compared with Form A [3]
CC(C)Oc1cc(Oc2cnc(C(=O)N3CCC3)cn2)cc(C(=O)Nc2cc[nH]n2)c1 [Form A, 3-{[5-(Azetidin-1-ylcarbonyl)pyrazin-2-yl]oxy}-5-[(1-methylethyl)oxy]-N-1H-pyrazol-3-ylbenzamide] | convert to the amorphous form |  | 
CC(C)Oc1cc(Oc2cnc(C(=O)N3CCC3)cn2)cc(C(=O)Nc2cc[nH]n2)c1 [Form A′, 3-{[5-(azetidin-1-ylcarbonyl)pyrazin-2-yl]oxy}-5-[(1-methylethyl)oxy]-N-1H-pyrazol-3-ylbenzamide] | convert to the amorphous form |  | 
CC(C)Oc1cc(Oc2cnc(C(=O)N3CCC3)cn2)cc(C(=O)Nc2cc[nH]n2)c1 [Form B, 3-{[5-(azetidin-1-ylcarbonyl)pyrazin-2-yl]oxy}-5-[(1-methylethyl)oxy]-N-1H-pyrazol-3-ylbenzamide] | does not significantly convert to other forms | most stable form | 
CC(C)Oc1cc(Oc2cnc(C(=O)N3CCC3)cn2)cc(C(=O)Nc2cc[nH]n2)c1 [amorphous form, 3-{[5-(azetidin-1-ylcarbonyl)pyrazin-2-yl]oxy}-5-[(1-methylethyl)oxy]-N-1H-pyrazol-3-ylbenzamide] |  |  | different solubility profile
